{
  "source": "patent US20190105337A1",
  "about": "“METHODS OF TREATING BACTERIAL INFECTIONS” (priority 2015, published 2019)",
  "test": "Example 6: plasma, epithelial lining fluid (ELF) and alveolar macrophage (AM) concentrations at bronchoscopy with BAL",
  "details": "8-hour sampling time",
  "procedure": "A total of twenty-five (n=25) male and female subjects who met the study entry criteria and completed all phases of the pharmacokinetic study were included in this pharmacokinetic analysis. […] Blood samples were collected to measure drug concentrations in plasma prior to (time 0), and at 1.5, 2.95, 3.083, 3.25, 3.5, 4, 6, and 8 hours after the start of a 3-hour intravenous infusion of the third combination dose.\nUrea has been commonly used as an endogenous marker to estimate the apparent volume of ELF. Blood samples to determine plasma urea concentrations were obtained just prior to scheduled bronchoscopy. Aliquots of BAL were obtained to determine urea concentrations in BAL and cell count with differential. The standardized bronchoscopy with BAL procedure for the collection of intrapulmonary samples has been previously described in the references listed below.\n(Reports MC14B-0013, MC14B-0015, MC14I-011, and MC14I-0012). The urea concentrations in plasma and BAL were performed with a microplate-based method with an 0-phthalaldehyde chromogenic solution at MicroConstants, Inc., San Diego, Calif.\nThe calculations of ELF volume and drug concentrations in ELF and AM were performed with BAL supernatant and pulmonary (alveolar) cells (“cell pellet”) from aspirates recovered from the 2nd, 3rd, and 4th instillations (BAL2). The concentration of drug (ABXELF) in the epithelial lining fluid (ELF) was determined as follows:\n[…]\nVELF is derived from the following:\nwhere UreaBAL is the concentration of urea in BAL fluid and UreaP is the concentration of urea in plasma.\nThe concentration of drug (ABXAM) in the alveolar cells (AC) was determined as follows:\nDifferential cell count was performed to determine the number of macrophages present. A mean macrophage cell volume of 2.42 μl/106 cells was used in the calculations for volume of alveolar cells in the pellet suspension.\nThe concentration ratios of ELF and AM to the simultaneous plasma concentrations were calculated for each subject and summarized for each group at each sampling time. […] The 8-hour sampling time was also used as a value at time zero for determining the area term of plasma, ELF, and AM. The AUC0-8 for each matrix was determined with the linear trapezoidal method. The ratio of AUC0-8 of ELF to plasma and AM to plasma were calculated.",
  "data": [
    {"smiles": "C[C@@H](O)[C@@H](C(=O)O)[C@@H]1NC(C(=O)O)=C(S[C@@H]2CN[C@H](C(=O)N(C)C)C2)[C@@H]1C", "note": "[meropenem open-lactam]", "values": [
      {"measurement": "ELF concentrations", "result": "below the quantifiable limit"}
    ]}
  ]
}
